Test results as given in patent US8394801B2, “Quinoxaline derivatives and their use for treating benign and malignant tumour disorders” (Aeterna Zentaris GmbH, priority 2009, dated 2013).

Columns and labels:
MDA MB468 = assay: Proliferation assay (Alamar Blue / XTT), MDA MB468; format: cell-based; details: Homo sapiens, MDA-MB-468; cell line MDA-MB468 (breast)
HCT116 = assay: Proliferation assay (Alamar Blue / XTT), HCT116; format: cell-based; details: Homo sapiens; cell line HCT-116 (colon)
A549 = assay: Proliferation assay (Alamar Blue / XTT), A549; format: cell-based; details: Homo sapiens; cell line A549 (lung)
PC-3 = assay: Proliferation assay (Alamar Blue / XTT), PC-3; format: cell-based; details: Homo sapiens, cell line PC3 (prostate)
U87MG = assay: Proliferation assay (Alamar Blue / XTT), U87MG; format: cell-based; details: Homo sapiens, U-87 MG; cell line U87MG (glioma)

Compound | melting point [°C] | other results
Oc1c(Cl)cc(-c2ccc3ncc(NC(=S)NC4CCCCC4)nc3c2)cc1Cl [Compound 21, 1-Cyclohexyl-3-[7-(3,5-dichloro-4-hydroxyphenyl)quinoxalin-2-yl]-thiourea] | 284 | 
Cc1cc(-c2ccc3ncc(NC(=S)NC4CCCC4)nc3c2)cc(C)c1O [Compound 24, 1-Cyclopentyl-3-[7-(4-hydroxy-3,5-dimethylphenyl)quinoxalin-2-yl]-thiourea] | 271 to 272 | 
Cc1cc(-c2ccc3ncc(NC(=S)NC(C)(C)C)nc3c2)cc(C)c1O [Compound 25, 1-tert-Butyl-3-[7-(4-hydroxy-3,5-dimethylphenyl)quinoxalin-2-yl]thiourea] | 238 to 240 | 
CCCCCNC(=O)Nc1cnc2ccc(-c3cc(C)c(O)c(C)c3)cc2n1 [Compound 33, 1-[7-(4-Hydroxy-3,5-dimethylphenyl)quinoxalin-2-yl]-3-pentylurea] | 274 to 275 | 
CCCCCCNC(=O)Nc1cnc2ccc(-c3cc(C)c(O)c(C)c3)cc2n1 [Compound 35, 1-Hexyl-3-[7-(4-hydroxy-3,5-dimethylphenyl)quinoxalin-2-yl]urea] | 272 to 273 | 
COc1ccc(NC(=O)Nc2cnc3ccc(-c4cc(C)c(O)c(C)c4)cc3n2)cc1 [Compound 48, 1-[7-(4-Hydroxy-3,5-dimethylphenyl)quinoxalin-2-yl]-3-(4-methoxy-phenyl)urea] | > 300 | 
Cc1cc(-c2ccc3ncc(NC(=O)Nc4ccc5ccccc5c4)nc3c2)cc(C)c1O [Compound 50, 1-[7-(4-Hydroxy-3,5-dimethylphenyl)quinoxalin-2-yl]-3-naphthalen-2-ylurea] | > 300 | 
Cc1cc(-c2ccc3ncc(NC(=O)NC(C)(C)CC(C)(C)C)nc3c2)cc(C)c1O [Compound 51, 1-[7-(4-Hydroxy-3,5-dimethylphenyl)quinoxalin-2-yl]-3-(1,1,3,3-tetra-methylbutyl)urea] | > 300 | 
Cc1cc(-c2ccc3ncc(NC(=O)Nc4cccnc4)nc3c2)cc(C)c1O [Compound 52, 1-[7-(4-Hydroxy-3,5-dimethylphenyl)quinoxalin-2-yl]-3-pyridin-3-ylurea] | 298 to 300 | 
Cc1cc(-c2ccc3ncc(NC(=O)NCC(C)(C)C)nc3c2)cc(C)c1O [Compound 67, 1-(2,2-Dimethyl-propyl)-3-[7-(4-hydroxy-3,5-dimethyl-phenyl)-quinoxalin-2-yl]-urea] | 275 to 276 | EC50 (MDA MB468): 384 nM; EC50 (HCT116): 325 nM; EC50 (A549): 352 nM; EC50 (PC-3): 188 nM; EC50 (U87MG): 222 nM
CCCCCCCNC(=O)Nc1cnc2ccc(-c3cc(Cl)c(O)c(Cl)c3)cc2n1 [Compound 75, 1-[7-(3,5-Dichloro-4-hydroxy-phenyl)-quinoxalin-2-yl]-3-heptyl-urea] | 289 to 291 | 
O=C(NCCCc1ccccc1)Nc1cnc2ccc(-c3cc(Cl)c(O)c(Cl)c3)cc2n1 [Compound 84, 1-[7-(3,5-Dichloro-4-hydroxy-phenyl)-quinoxalin-2-yl]-3-(3-phenyl-propyl)-urea] | 271 to 274 | 
O=C(NCCc1ccccc1)Nc1cnc2ccc(-c3cc(Cl)c(O)c(Cl)c3)cc2n1 [Compound 85, 1-[7-(3,5-Dichloro-4-hydroxy-phenyl)-quinoxalin-2-yl]-3-phenethyl-urea] |  | EC50 (MDA MB468): 1610 nM; EC50 (HCT116): 1300 nM; EC50 (A549): 1840 nM; EC50 (PC-3): 1260 nM; EC50 (U87MG): 495 nM
CCCNC(=S)Nc1cnc2ccc(-c3cc(Cl)c(O)c(Cl)c3)cc2n1 [Compound 89, 1-[7-(3,5-Dichloro-4-hydroxy-phenyl)-quinoxalin-2-yl]-3-propyl-thiourea] | 237 to 239 | 
Oc1c(Cl)cc(-c2ccc3ncc(NC(=S)NC4CCCCCC4)nc3c2)cc1Cl [Compound 92, 1-Cycloheptyl-3-[7-(3,5-dichloro-4-hydroxy-phenyl)-quinoxalin-2-yl]-thiourea] | 281 to 283 | 

Continued, in another order:

melting point [°C] | Compound | other results
251 | CNC(=O)Nc1cnc2ccc(-c3cc(C)c(O)c(C)c3)cc2n1 [Compound 16, 1-[7-(4-Hydroxy-3,5-dimethylphenyl)quinoxalin-2-yl]-3-methylurea] | 
257 | CCNC(=O)Nc1cnc2ccc(-c3cc(C)c(O)c(C)c3)cc2n1 [Compound 19, 1-Ethyl-3-[7-(4-hydroxy-3,5-dimethylphenyl)quinoxalin-2-yl]urea] | 
> 300 | Cc1ccc(NC(=O)Nc2cnc3ccc(-c4cc(C)c(O)c(C)c4)cc3n2)cc1 [Compound 46, 1-[7-(4-Hydroxy-3,5-dimethylphenyl)quinoxalin-2-yl]-3-p-tolylurea] | 
> 300 | Cc1cc(-c2ccc3ncc(NC(=O)Nc4ccc(Cl)c(Cl)c4)nc3c2)cc(C)c1O [Compound 47, 1-(3,4-Dichlorophenyl)-3-[7-(4-hydroxy-3,5-dimethylphenyl)quinoxalin-2-yl]urea] | 
265 | Cc1cc(-c2ccc3ncc(NC(=O)N[C@H](C)C(C)C)nc3c2)cc(C)c1O [Compound 53, 1-((R)-1,2-Dimethylpropyl)-3-[7-(4-hydroxy-3,5-dimethylphenyl)-quinoxalin-2-yl]urea] | 
267 | Cc1cc(-c2ccc3ncc(NC(=O)N[C@@H](C)C(C)C)nc3c2)cc(C)c1O [Compound 54, 1-((S)-1,2-Dimethylpropyl)-3-[7-(4-hydroxy-3,5-dimethylphenyl)-quinoxalin-2-yl]urea] | 
297 to 298 | CCCCCNC(=O)Nc1cnc2ccc(-c3cc(Cl)c(O)c(Cl)c3)cc2n1 [Compound 71, 1-[7-(3,5-Dichloro-4-hydroxy-phenyl)-quinoxalin-2-yl]-3-pentyl-urea] | 
298 to 300 | CC(C)NC(=O)Nc1cnc2ccc(-c3cc(Cl)c(O)c(Cl)c3)cc2n1 [Compound 76, 1-[7-(3,5-Dichloro-4-hydroxy-phenyl)-quinoxalin-2-yl]-3-isopropyl-urea] | 
292 to 295 | CC(C)(C)NC(=O)Nc1cnc2ccc(-c3cc(Cl)c(O)c(Cl)c3)cc2n1 [Compound 77, 1-tert-Butyl-3-[7-(3,5-dichloro-4-hydroxy-phenyl)-quinoxalin-2-yl]-urea] | 
295 to 296 | O=C(Nc1cnc2ccc(-c3cc(Cl)c(O)c(Cl)c3)cc2n1)NC1CCCC1 [Compound 81, 1-Cyclopentyl-3-[7-(3,5-dichloro-4-hydroxy-phenyl)-quinoxalin-2-yl]-urea] | 
> 300 | O=C(Nc1ccccc1)Nc1cnc2ccc(-c3cc(Cl)c(O)c(Cl)c3)cc2n1 [Compound 86, 1-[7-(3,5-Dichloro-4-hydroxy-phenyl)-quinoxalin-2-yl]-3-phenyl-urea] | 
237 to 238 | CCNC(=S)Nc1cnc2ccc(-c3cc(Cl)c(O)c(Cl)c3)cc2n1 [Compound 88, 1-[7-(3,5-Dichloro-4-hydroxy-phenyl)-quinoxalin-2-yl]-3-ethyl-thiourea] | 
276 to 278 | CC(C)NC(=S)Nc1cnc2ccc(-c3cc(Cl)c(O)c(Cl)c3)cc2n1 [Compound 91, 1-[7-(3,5-Dichloro-4-hydroxy-phenyl)-quinoxalin-2-yl]-3-isopropyl-thiourea] | 
275 to 277 | CC(C)NC(=O)Nc1cnc2ccc(-c3ccc(O)c(Cl)c3)cc2n1 [Compound 95, 1-[7-(3-Chloro-4-hydroxy-phenyl)-quinoxalin-2-yl]-3-isopropyl-urea] | 
